Results reported in patent publication US20230357349A1, “GLUCAGON DELIVERY VIA ENZYMATIC ACTUATION” (University of Notre Dame du Lac, priority 2022, published 2023).
Each block holds one compound with its values, some of them ahead of it. Peptide text beside a SMILES is read from it. * marks the point of attachment. Palmitoyl = CCCCCCCCCCCCCCCC(=O)*; Decanoyl = CCCCCCCCCC(=O)*

Experiments:
[1] = pH recorded by microelectrode submerged in PA/GOx hydrogel samples; assay type: physicochemical; conditions: 24 h, began at pH 7.4
[2] = Oscillatory rheology of 1% w/v PA samples in buffers of various pH; assay type: physicochemical; conditions: for storage modulus G′: 1% w/v, 1% strain, 10 rad/s
Description: The C10-V2A2E2 peptide (SEQ ID NO: 4) amphiphile was first dissolved in DI water at a concentration of 2% (w/v). The solution was adjusted to pH 7.4 using 0.1 M HCl, and then mixed with an equal volume of citrate-phosphate buffer (150 mM buffer+150 mM NaCl) at different pH (4, 5, 6, 7, 8) to form a gel at a concentration of 1% (w/v) in a final buffer concentration of 150 mM.
(§1) Dynamic oscillatory rheology was performed on a TA Instruments Discovery HR-2 rheometer fitted with a Peltier stage using a parallel plate geometry with diameter of 25 mm to test the mechanical properties of all peptide hydrogels. Samples were prepared at a concentration of 1% (w/v) in buffers of different pH or glucose concentration, as described above, and measured 24 h after gel preparation. An amplitude sweep was first performed to determine the linear viscoelastic range for each hydrogel condition, and then a frequency sweep was performed at constant strain. Subsequently, a time-sweep (1% strain, 10 rad/s angular frequency) was performed for all hydrogels to measure and compare the storage modulus (G′).
Vial inversion affords a crude means to inspect bulk differences in apparent hydrogelation. By contrast, rheological testing enables quantitative insights into the mechanical and dynamic properties of these materials. Oscillatory rheology was thus performed to quantify the observed pH-dependent differences in hydrogelation. Samples were first assessed with a strain sweep to determine the linear viscoelastic range, and then gel-forming samples were subjected to a frequency sweep to verify the range of oscillatory frequency rates wherein the storage modulus (G′) exceeded the viscous/loss modulus (G″).
The G′ values for samples at each pH were compared at a constant strain of 1% and frequency of 10 rad/s. When comparing G′ values across the full range of pH explored (n=2 gels/sample), pH-dependent mechanical properties were clearly evident (FIG. 4E, FIG. 7). […] Samples prepared at pH 8 had G′ measurements at the lower limit of instrument sensitivity.

[3] = pH-dependent release of encapsulated 3 kDa FITC-dextran to screen PA sequences; assay type: physicochemical; conditions: 3 kDa FITC-dextran release; pH 7 minus pH 5 at 5 hr
Text: GOx conversion of physiological levels of glucose to yield gluconic acid can lead to a microenvironmental pH in the range of ˜4-5.6. Accordingly, a molecular design was envisioned bearing the typical saturated alkyl chain and β-sheet-forming sequence coupled to glutamic acid as the hydrophilic domain; the pKa of its carboxylate R-group (˜4.5) can shift upward in the range of 4.5-6 due to aggregation effects from PA self-assembly. […] Different PA sequences were synthesized to vary the alkyl tail length (C10 and C16) and valine (V)-alanine (A) β-sheet sequence (V2A2, VA3, A2) with a conserved hydrophilic head group (E2). The intention of screening this small set of molecules was to probe pH-responsive release to determine the optimal balance of attractive and repulsive forces required for the envisioned application of assembly at normal glucose (i.e., low pH actuated by GOx) but disassembly and glucagon release in low glucose conditions (i.e., neutral-buffered physiological pH). […] The selected sequence has a shorter C10 alkyl segment than commonly used in most reported PA materials. The V2A2 sequence is thought to be effective for β-sheet hydrogen bonding, while still being shorter than most commonly explored sequences. […] Thus, a reduction in cohesive forces from a shorter alkyl segment and a 4-residue β-sheet forming segment was thought to enable more rapid responsiveness dependent on the charge state of the glutamic acid residues.
Hydrogels were prepared in all cases in a pH 5 buffer at 1% w/v to ensure initial gelation. […] It is noted that catalase was added to these formulations in order to catalyze the conversion of the toxic GOx byproduct, H2O2, into H2O and O2 in advance of in vivo application, as is commonly done to reduce toxicity for other GOx-based glucose-responsive materials.

[4] = Oscillatory rheology of 1% w/v PA with GOx at various glucose concentrations; assay type: physicochemical; conditions: pH 7.4 start, 24 h
Description: The C10-V2A2E2 peptide amphiphile was first dissolved in DI water at a concentration of 2% (w/v). The solution was adjusted to pH 7.4 using 0.1 M HCl, and then mixed with an equal volume of 300 mM NaCl solution containing 440 U/mL GOx and different glucose concentration (0, 100, 200, 300, 400 mg/dL) to achieve final glucose concentrations of 0, 50, 100, 150, and 200 mg/dL and final peptide concentration of 1% (w/v).
as §1
After pH-dependent self-assembly and gelation was established, glucose-dependent gelation was explored through the inclusion of GOx to actuate glucose into a pH stimulus. One benefit of hydrogelation of this material at 1% w/v is the significant hydrated and interconnected porosity (FIG. 9A-D) to enable encapsulation of proteins like GOx to drive gelation in response to glucose. Samples of C10-V2A2E2 were prepared at 1% w/v in buffer at pH 7.4, with glucose added to achieve concentrations ranging from 0 to 200 mg/dL (0 to 11.1 mM). These ranges of glucose were selected to span typical physiological glucose levels in the healthy state and extend down to levels corresponding to hypoglycemia. Following equilibration for 24 h, samples were assessed grossly for gelation by vial inversion (FIG. 10A), as performed in pH-dependent gelation studies. […] The material prepared with 100 mg/dL glucose was very viscous but slowly flowed upon inversion, while those prepared at 0 mg/dL and 50 mg/dL were not self-supported on inversion.
Measurements were collected as before for gels prepared in each of the different glucose-containing buffers. The value of G′ increased with increasing levels of glucose, as follows: 10.2 Pa (0 mg/dL), 19.0 Pa (50 mg/dL), 29.5 Pa (100 mg/dL), 206.6 Pa (150 mg/dL), and 2.4 kPa (200 mg/dL). Given results of pH-dependent gelation for C10-V2A2E2 PA, it was expected that inclusion of GOx would actuate increased glucose level into a local reduction in pH driving hydrogelation. […] The fixed and finite glucose concentrations within these small volume hydrogels may somewhat limit direct comparisons with concentrations for their use in a physiological setting, as a replenishable glucose supply could further stiffen the materials through enhanced pH reduction.

[5] = test system: Streptozotocin (STZ) diabetic mice; test: Prophylactic hypoglycemia prevention after insulin overdose in diabetic mice
Description: To assess the ability of this technology to act in a preventative role to limit the onset and severity of hypoglycemia, a mouse model was established. Male C57BL6/J mice, aged 8 weeks, were induced to be diabetic by the destruction of pancreatic β-cells using a single intraperitoneal (i.p.) injection of streptozotocin (STZ, Cayman Chemical) at a dose of 150 mg/kg, according to published dosing protocols. […] Insulin-deficient diabetes was verified at 9-13 days following STZ treatment using handheld blood glucose meters (CVS brand) to ensure unfasted blood glucose (BG) levels of 600+ mg/dL. These glucometers measure blood glucose values in the range of 20-600 mg/dL. For convention in presenting data, values of “high” are plotted as 600 mg/dL, while values of “low” are plotted as 20 mg/dL.
Mice were fasted overnight for a period of 9 h, after which time BG was again measured. Mice having a fasted BG<450 mg/dL were triaged and removed from further study. Remaining mice were dosed with basal insulin detemir (Levemir®, Novo Nordisk) via subcutaneous (s.c.) injection at a dose of 0.5 IU/kg in a total injection volume of 100 μL. […] This material formulation was verified to be stable following extrusion through a syringe into a pH 7 buffer containing 100 mg/dL glucose. Blood glucose was monitored serially following treatment, which for purposes of data visualization was set as t=0 min. At 2 h following administration of treatments, hypoglycemia was induced by i.p. injection of AOF recombinant human insulin (Gibco) at a dose of ˜2.5 IU/kg in 100 μL of saline. BG levels were monitored for an additional 3 h after insulin overdose to monitor the onset of, and recovery from, hypoglycemia. […] In total n=9 mice per group were assessed by these methods, performing all treatments in two separate experiments on different mouse cohorts at different times and combining the data for analysis here. Mice were fasted for the duration of the study but had continuous access to water. […] Statistical testing between treatment and control groups was performed using one-way ANOVA with Tukey multiple comparison post-hoc testing (GraphPad Prism v9.0).
STZ mice were fasted to increase sensitivity to both insulin and glucagon and limit confounding data arising from variable eating patterns. After a 9 h fast, basal insulin detemir (Novo Nordisk, Levemir®) was administered to correct blood glucose to within the normoglycemic range for a healthy mouse (˜180-200 mg/dL) to simulate insulin-dependent blood glucose control in diabetes.

[6] = in vivo; cited from earlier work
[7] = humans; cited from earlier work

Compound: CCCCCCCCCC(=O)N[C@H](C(=O)N[C@@H](C)C(=O)N[C@@H](C)C(=O)N[C@@H](C)C(=O)N[C@@H](CCC(=O)O)C(=O)N[C@@H](CCC(=O)O)C(N)=O)C(C)C [C10—VA3E2] (Decanoyl-VAAAEE-NH2)
- Δ Release % (pH 7-5 at 5 hr) [3]: 39.1%

Compound: dasiglucagon
- blood glucose relative to buffer control ([5]; 30 min after treatment, before insulin challenge): sharply increased
- blood glucose at endpoint of study ([5]; 300 min, 3 h after insulin challenge, n=9): 65.6 ± 10.8 mg/dL
- minimum (nadir) blood glucose ([5]; STZ mice, s.c. 0.01 mg dasiglucagon, insulin challenge at 2 h, n=9, SEM): 41.1 ± 5.0 mg/dL
- observations of death ([5]; after insulin overdose): 1 of 9

Compound: glucagon
- half-life in circulation [6]: approximately 5 min

Compound: insulin detemir
- duration of action [7]: 18 to 20 h

Other lines, results leading:

- pH within hydrogel sample ([1]; 0 mg/dL glucose): 7.3
- pH within hydrogel sample ([1]; 200 mg/dL glucose): 5.5
- critical strain ([2]; hydrogel in buffer at pH 5): ~55%
- strain range of linear behavior with G′>G″ ([2]; hydrogel in buffer at pH 5): 0.1-5%
- pKa ([2]; inferred from rheology, TEM, CD, FTIR, ThT, read-out: pKa of glutamic acid residues in the assembled structures): 5 to 6
- storage modulus G′ ([2]; pH 4): 6.2 kPa
- storage modulus G′ ([2]; pH 5): 5.1 kPa
- storage modulus G′ ([2]; pH 6): 53.7 Pa
- storage modulus G′ ([2]; pH 7): 4.3 Pa
- storage modulus G′ ([2]; pH 8): 1.2 Pa
- Δ Release % (pH 7-5 at 5 hr) [3]: 62.6%
- storage modulus G′ ([4]; 0 mg/dL glucose): 10.2 Pa
- storage modulus G′ ([4]; 50 mg/dL glucose): 19.0 Pa
- storage modulus G′ ([4]; 100 mg/dL glucose): 29.5 Pa
- storage modulus G′ ([4]; 150 mg/dL glucose): 206.6 Pa
- storage modulus G′ ([4]; 200 mg/dL glucose): 2.4 kPa
Compound: CCCCCCCCCC(=O)N[C@H](C(=O)N[C@H](C(=O)N[C@@H](C)C(=O)N[C@@H](C)C(=O)N[C@@H](CCC(=O)O)C(=O)N[C@@H](CCC(=O)O)C(N)=O)C(C)C)C(C)C [C10—V2A2E2] (Decanoyl-VVAAEE-NH2)

- Δ Release % (pH 7-5 at 5 hr) [3]: 38.9%
Compound: CCCCCCCCCCCCCCCC(=O)N[C@@H](C)C(=O)N[C@@H](C)C(=O)N[C@H](C(=O)N[C@H](C(=O)N[C@@H](CCC(=O)O)C(=O)N[C@@H](CCC(=O)O)C(N)=O)C(C)C)C(C)C [C16—A2V2E2] (Palmitoyl-AAVVEE-NH2)

- Δ Release % (pH 7-5 at 5 hr) [3]: 43.6%
Compound: CCCCCCCCCCCCCCCC(=O)N[C@H](C(=O)N[C@H](C(=O)N[C@@H](C)C(=O)N[C@@H](C)C(=O)N[C@@H](CCC(=O)O)C(=O)N[C@@H](CCC(=O)O)C(N)=O)C(C)C)C(C)C [C16—V2A2E2] (Palmitoyl-VVAAEE-NH2)

- Δ Release % (pH 7-5 at 5 hr) [3]: 53.8%
Compound: CCCCCCCCCCCCCCCC(=O)N[C@H](C(=O)N[C@@H](C)C(=O)N[C@@H](C)C(=O)N[C@@H](C)C(=O)N[C@@H](CCC(=O)O)C(=O)N[C@@H](CCC(=O)O)C(N)=O)C(C)C [C16—VA3E2] (Palmitoyl-VAAAEE-NH2)
